Consider 3 molecules from patent publication US8492088B2, “Engineering enzymes through genetic selection” (priority 2007, dated 2013).

Read-outs that look alike come from different tables or passages of the source. Bounds are passed on as bounds.

For assay [1] the following is noted: in vivo; cited from earlier work.
The subject of another assay is Candida albicans. The conditions noted are these: against Candida albicans; cited from earlier work.
Assay [2] has as its system Gram negative and Gram-positive bacteria. The conditions noted are these: series of Gram negative and Gram-positive bacteria; cited from earlier work.
A further assay concerns Heliothis virescens. The conditions noted are these: against Heliothis virescens; cited from earlier work.
Assay [3] has as its target T1, RXR variant I268A; I310S; F313V; L436F (Homo sapiens, UniProt P19793, F313V/I268A/I310S/L436F).
T1 sequence (P19793 225-462 I268A/I310S/F313V/L436F): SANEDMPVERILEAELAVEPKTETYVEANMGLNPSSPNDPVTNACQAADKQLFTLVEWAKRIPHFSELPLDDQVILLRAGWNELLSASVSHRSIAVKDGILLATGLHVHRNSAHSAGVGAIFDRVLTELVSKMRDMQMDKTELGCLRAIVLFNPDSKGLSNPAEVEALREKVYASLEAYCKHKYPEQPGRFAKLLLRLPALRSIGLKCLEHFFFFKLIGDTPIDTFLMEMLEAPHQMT
The assay is described as follows: cell-based. Also noted: species or system yeast. The source says:
(§1) Liquid Media: The method used for quantitation was modified from a method developed by Miller and known in the art.
(§2) The twelve plasmids rescued from the selective plates were retransformed into PJ69-4A to confirm that their phenotype is plasmid linked. The strain PJ69-4A was engineered to contain a Gal4 response element controlling expression of the LacZ gene, in addition to the ADE2 gene. […] The selection assay quantifies yeast growth occurring through transcriptional activation of the ADE2 gene, while the screen quantifies β-galactosidase activity occurring though transcriptional activation of the LacZ gene.

Assay [4] concerns the target T2, RXR variant I268A; A272V; I310A; F313A; L436F (Homo sapiens, UniProt P19793, A272V/F313A/I268A/I310A/L436F).
T2 construct: expressed in transfected cells; host or cells: HEK 293
The assay is described as follows: Mammalian luciferase assay in HEK 293 cells. Format: cell-based. An excerpt: (§3) RLU=relative light units.
(§4) Mammalian Luciferase Assay: Performed with HEK 293 cells as previously described, and known in the art.

Assay [5] concerns the target T3, RXR variant I268L; A271V; I310L; F313L (Homo sapiens, UniProt P19793, A271V/F313L/I268L/I310L).
T3 construct: expressed in transfected cells; host or cells: HEK 293
The assay is described as follows: Mammalian luciferase assay in HEK 293 cells. Format: cell-based.
Excerpt: as §3, §4

A further assay deals with wtRXR (Homo sapiens, UniProt P19793). Put plainly: cell-based.
Excerpt: as §3, §4
(§5) Five variants were chosen for testing in mammalian cell culture for comparison of the activation profiles (I268A;I310A;F313A;L436F,I268V;A272V;I310L;F313M, I268A;I310S;F313A;L436F, I268V;A272V;I310M;F313S;L436M, and I286A;I310M;F313A;L436T). The genes for these variants were removed from yeast expression plasmids and ligated into mammalian expression plasmids.

The target in assay [6] is T4, RXR variant I268V; A272V; I310L; F313M (Homo sapiens, UniProt P19793, A272V/F313M/I268V/I310L).
T4 sequence (P19793 227-462 I268V/A272V/I310L/F313M): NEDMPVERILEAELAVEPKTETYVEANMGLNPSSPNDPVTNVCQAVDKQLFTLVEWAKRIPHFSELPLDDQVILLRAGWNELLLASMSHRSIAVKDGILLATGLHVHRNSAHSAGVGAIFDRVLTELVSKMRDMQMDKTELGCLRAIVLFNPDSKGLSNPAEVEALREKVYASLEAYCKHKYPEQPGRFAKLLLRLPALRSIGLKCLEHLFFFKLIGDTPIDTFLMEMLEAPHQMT
Excerpt: as §1, §2

Assay [7] deals with RXR variant I268A; I310A; F313A; L436F (Homo sapiens, UniProt P19793, F313A/I268A/I310A/L436F). The conditions noted are these: Yeast, relative to wild type with 10 μM 9cRA.
Excerpt: as §1, §2

The target in assay [8] is RXR variant I268V; A272V; I310M; F313S; L436M (Homo sapiens, UniProt P19793, A272V/F313S/I268V/I310M/L436M). The conditions noted are these: Yeast.
Excerpt: as §1, §2
Target sequence in this assay (P19793 227-458 I268V/A272V/I310M/F313S/L436M limits assumed): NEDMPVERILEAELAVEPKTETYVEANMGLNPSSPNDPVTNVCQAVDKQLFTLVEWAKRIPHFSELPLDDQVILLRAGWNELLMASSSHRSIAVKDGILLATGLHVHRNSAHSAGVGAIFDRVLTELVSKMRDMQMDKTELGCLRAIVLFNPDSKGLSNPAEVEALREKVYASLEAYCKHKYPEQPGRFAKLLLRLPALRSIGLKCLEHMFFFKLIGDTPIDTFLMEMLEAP
Target sequence in this assay (Q9Y6Q9 1-1413 partner limits assumed): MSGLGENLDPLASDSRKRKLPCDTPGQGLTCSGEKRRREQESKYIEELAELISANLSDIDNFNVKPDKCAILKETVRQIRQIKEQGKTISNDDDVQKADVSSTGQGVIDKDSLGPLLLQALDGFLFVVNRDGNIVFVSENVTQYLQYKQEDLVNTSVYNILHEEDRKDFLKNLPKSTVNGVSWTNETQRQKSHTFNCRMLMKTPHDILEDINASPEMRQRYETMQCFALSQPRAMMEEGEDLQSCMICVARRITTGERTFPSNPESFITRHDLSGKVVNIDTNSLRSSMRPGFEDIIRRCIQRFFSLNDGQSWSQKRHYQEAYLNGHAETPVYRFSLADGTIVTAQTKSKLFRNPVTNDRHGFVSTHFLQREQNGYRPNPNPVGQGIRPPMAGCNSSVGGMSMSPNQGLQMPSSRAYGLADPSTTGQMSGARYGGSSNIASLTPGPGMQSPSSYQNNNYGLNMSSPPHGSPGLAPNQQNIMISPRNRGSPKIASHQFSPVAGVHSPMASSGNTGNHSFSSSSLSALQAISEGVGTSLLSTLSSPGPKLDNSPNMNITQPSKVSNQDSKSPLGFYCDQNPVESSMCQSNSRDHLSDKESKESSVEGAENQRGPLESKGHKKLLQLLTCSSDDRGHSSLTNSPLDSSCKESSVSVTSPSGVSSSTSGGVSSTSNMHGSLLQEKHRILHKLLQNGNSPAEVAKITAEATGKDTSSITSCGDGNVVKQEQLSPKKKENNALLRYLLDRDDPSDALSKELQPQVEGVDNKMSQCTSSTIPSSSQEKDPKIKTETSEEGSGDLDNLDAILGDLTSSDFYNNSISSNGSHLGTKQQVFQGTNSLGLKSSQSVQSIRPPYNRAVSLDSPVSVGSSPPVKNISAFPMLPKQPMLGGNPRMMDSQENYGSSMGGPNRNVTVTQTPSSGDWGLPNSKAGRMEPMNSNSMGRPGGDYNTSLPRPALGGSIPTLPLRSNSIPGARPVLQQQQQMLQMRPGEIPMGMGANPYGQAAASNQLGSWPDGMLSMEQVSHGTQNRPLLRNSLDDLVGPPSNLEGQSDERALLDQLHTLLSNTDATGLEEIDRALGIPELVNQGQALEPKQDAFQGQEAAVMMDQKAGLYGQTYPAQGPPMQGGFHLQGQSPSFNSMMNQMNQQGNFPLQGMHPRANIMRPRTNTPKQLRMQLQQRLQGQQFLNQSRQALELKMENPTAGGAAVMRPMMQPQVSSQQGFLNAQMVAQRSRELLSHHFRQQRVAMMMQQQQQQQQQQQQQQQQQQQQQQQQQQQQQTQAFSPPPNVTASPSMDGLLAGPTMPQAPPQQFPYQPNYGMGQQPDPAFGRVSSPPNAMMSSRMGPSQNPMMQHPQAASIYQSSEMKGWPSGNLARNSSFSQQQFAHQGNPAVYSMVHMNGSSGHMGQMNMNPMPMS

Assay [9] deals with RXR variant I268V; I310V; F313S (Homo sapiens, UniProt P19793, F313S/I268V/I310V). The conditions noted are these: Yeast.
Excerpt: as §1, §2

Assay [10] deals with RXR variant I268A; I310M; F313A; L436T (Homo sapiens, UniProt P19793, F313A/I268A/I310M/L436T). The conditions noted are these: Yeast.
Excerpt: as §1, §2

Assay [11] concerns the target RXR variant I268V; A271V; I310L; F313V (Homo sapiens, UniProt P19793, A271V/F313V/I268V/I310L). The conditions noted are these: Yeast.
Excerpt: as §1, §2

Assay [12] deals with RXR variant I268A; A272V; I310A; F313A; L436F (Homo sapiens, UniProt P19793, A272V/F313A/I268A/I310A/L436F). The conditions noted are these: Yeast.
Excerpt: as §1, §2

The target of assay [13] is RXR variant I268L; I310V; F313I (Homo sapiens, UniProt P19793, F313I/I268L/I310V). The conditions noted are these: Yeast.
Excerpt: as §1, §2

Assay [14] concerns the target RXR variant I268L; I310M; F313V (Homo sapiens, UniProt P19793, F313V/I268L/I310M).
Excerpt: as §1, §2

In assay [15] the target is RXR variant I268L; A271V; I310L; F313L (Homo sapiens, UniProt P19793, A271V/F313L/I268L/I310L). The conditions noted are these: Yeast.
Excerpt: as §1, §2

In assay [16] the target is RXR variant I268A; I310M; F313A; L436T (Homo sapiens, UniProt P19793, F313A/I268A/I310M/L436T).
Excerpt: as §3, §4, §5

Assay [17] concerns the target RXR variant I268A; I310A; F313A; L436F (Homo sapiens, UniProt P19793, F313A/I268A/I310A/L436F).
Excerpt: as §3, §4, §5

The target of assay [18] is RXR variant I268V; A272V; I310M; F313S; L436M (Homo sapiens, UniProt P19793, A272V/F313S/I268V/I310M/L436M).
Excerpt: as §3, §4, §5

Assay [19] has as its target RXR variant I268V; A272V; I310L; F313M (Homo sapiens, UniProt P19793, A272V/F313M/I268V/I310L).
Excerpt: as §3, §4, §5
The source holds these as a separate data set.

The next assay deals with wild-type RXR (GBD:RXR) (Homo sapiens, UniProt P19793). Put plainly: cell-based.
Excerpt: as §1, §2
Three plasmids were used as controls in the screen and selection assays. […] This plasmid provides a measure of background noise in both the selection and screen assays.

The target in assay [20] is T5, RXR variant I268A; I310S; F313V; L436F (Homo sapiens, UniProt P19793, F313V/I268A/I310S/L436F).
T5 construct: express the Gal4 DBD fused with a variant RXR LBD (GBD:RXR); expressed in transfected cells; host or cells: Saccharomyces cerevisiae PJ69-4A
Format: cell-based. The conditions noted are these: Yeast, L436F (first line, r10).
Excerpt: as §1, §2

Assay [21] addresses T1, RXR variant I268A; I310S; F313V; L436F. Put plainly: cell-based.
For assay [22], the target named is T6, RXR variant Q275C;I310M;F313I (Homo sapiens, UniProt P19793, F313I/I310M/Q275C).
T6 construct: expressed in transfected cells; host or cells: yeast
The conditions noted are these: in yeast; previous best LG335 receptor Q275C;I310M;F313I; cited from earlier work.

Setting [23] is: relative to wild type with 10 μM 9cRA.
Setting [24] is: HEK 293, relative to wild type with 10 μM 9cRA.

RXR variant I268L; I310M; F313V, sequence (P19793 227-458 I268L/I310M/F313V limits assumed): as the sequence (P19793 227-458 I268V/A272V/I310M/F313S/L436M limits assumed) above, with V42L, V46A, S87V, M210L counted along it
RXR variant I268L; I310M; F313V, sequence (Q9Y6Q9 1-1413 partner limits assumed): as the sequence (Q9Y6Q9 1-1413 partner limits assumed) above
RXR variant I268L; I310V; F313I, sequence (P19793 227-458 I268L/I310V/F313I limits assumed): as the sequence (P19793 227-458 I268V/A272V/I310M/F313S/L436M limits assumed) above, with V42L, V46A, M84V, S87I, M210L counted along it
RXR variant I268L; I310V; F313I, sequence (Q9Y6Q9 1-1413 partner limits assumed): as the sequence (Q9Y6Q9 1-1413 partner limits assumed) above

As for `CO/C(=C/C(=O)N(C)C(Cc1ccccc1)c1nccs1)CC(C)C(Cl)(Cl)Cl` (stereo not shown) [Barbamide], the molluscicidal activity entry in assay [1] is recorded as “potent mollucuscidal activity”.
In the case of `C/C1=C\[C@H](C)C[C@H](C)OC(=O)C[C@H](c2ccc(O)cc2)NC(=O)[C@@H](Cc2c(Br)[nH]c3ccccc23)N(C)C(=O)[C@H](C)NC(=O)[C@@H](C)C1` [Jaspamide], the fungicidal activity result with Candida albicans is on record as “fungicidal activity”. Also, the activity against bacteria result in assay [2] is “completely inactive”. Moreover, in the assay with Heliothis virescens, the insecticidal activity result is listed as “insecticidal”.
Usually EC50 stands for the concentration that produces a half-maximal response. Regarding `CCCc1cc2c(cc1C(=O)c1ccc(C(=O)O)cc1)C(C)(C)CCC2(C)C` [LG335, 4-[(3-Propyl-5,5,8,8-tetramethyl-5,6,7,8-tetrahydro-2-naphtyl)carbonyl]benzoic Acid], the EC50 was 430 nM in assay [3] (Yeast, I268A, I310S, F313V, L436F (second line, r11)); 1 nM in assay [4]; 1 nM in assay [5]; 300 nM at wtRXR; 40 nM in assay [6] (in yeast, I268V;A272V;I310L;F313M); 680 nM in assay [8]. Moreover, the EC50 in [9] is reported as 440 nM; in assay [10], 610 nM; in [11], 650 nM; in assay [12], 530 nM; in [13], over 2000 nM; in assay [14] (Yeast, I268L, I310M, F313V), 610 nM. In addition, the EC50 in assay [15] was 530 nM; in [16] (HEK 293), 140 nM; in assay [17] (HEK 293) it was 30 nM; in [18] (HEK 293) it was 180 nM; in assay [19] (HEK 293) it was 1 nM; at wild-type RXR (GBD:RXR), over 10 µM. For the same molecule, the EC50 in assay [20] is 470 nM; in assay [21] (HEK 293, I268A, I310S, F313V, L436F (second line, r11)), 690 nM; in [22], 1 µM. The Emax in [3] (read-out: Eff (efficacy)) came to 50%; in [21] (HEK293, read-out: Eff (efficacy)), 20%. For the same molecule, the “Eff (efficacy)” value on wtRXR (HEK 293, WT, relative to wild type with 10 μM 9cRA) came to 10%; in [6] (Yeast, I268V, A272V, I310L, F313M, relative to wild type with 10 μM 9cRA), 60%; in [7], 70%; in assay [8] (setting [23]), 30%; in assay [9] (setting [23]) it was 10%; in assay [10] (setting [23]), 10%. The “Eff (efficacy)” value in assay [11] (setting [23]) was 10%; in assay [12] (setting [23]), 30%; in [13] (setting [23]) it was 10%; in [14] (Yeast, I268L, I310M, F313V, relative to wild type with 10 μM 9cRA) it was 20%; in assay [15] (setting [23]), 20%; in assay [16] (setting [24]), 20%. Further, the “Eff (efficacy)” value in assay [17] (setting [24]) is recorded as 50%; in [18] (setting [24]), 30%; in assay [19] (setting [24]), 30%; at wild-type RXR (GBD:RXR) (Yeast, WT, maximum increase in activation relative to wild type with 10 μM 9cRA), 10%; in assay [20] (setting [23]) it was 60%. Further, the “improvement in EC50 over the previous best LG335 receptor, Q275C;I310M;F313I” value in [6] (in yeast, LG335-I268V;A272V;I310L;F313M ligand receptor pair) is recorded as 25 fold. For the same molecule, the “activity in the screen assay” value in assay [14] (I268L;I310M;F313V, high basal activity) is given as “increase activity at micromolar concentrations”.
